As usually defined, the IC50 is the concentration that gives 50% inhibition. By CC50 is commonly meant the concentration giving 50% cytotoxicity.

From ChEMBL document CHEMBL2434925, “Synthesis and antiviral activity of a novel class of (5-oxazolyl)phenyl amines” (Eur J Med Chem, 2013) come the findings set out here.

Data set [1] can be described thus: Selectivity index, ratio of CC50 for human Huh7.5 cells to IC50 for HCV expressing pFL-J6/JFH/JC1. The class given is functional, Huh-7.
The test system of the next data set is Coxsackievirus B3. Kind of data set: Antiviral activity against Coxsackie B3 virus Nancy in african green monkey Vero cells assessed as inhibition virus-induced cytopathic effect after 48 hrs. The settings on record: Enterovirus B. The class given is functional, organism-based. For orientation: Cytopathic effects are the visible damage that an infection or toxin causes in cultured cells.

The subject of another data set is Hepatitis C virus. Description: Antiviral activity against HCV expressing pFL-J6/JFH/JC1 infected in human Huh7.5 cells assessed as inhibition of viral RNA synthesis after 96 hrs by one-step RT-PCR analysis. The class given is functional, organism-based, Hepacivirus hominis. The settings on record: Huh-7, 96 h.
In another data set the test system is Coxsackievirus B6. Description: Antiviral activity against Coxsackie B6 virus Schmitt in african green monkey Vero cells assessed as inhibition virus-induced cytopathic effect after 48 hrs. The class given is functional, organism-based. The settings on record: Enterovirus B.
Data set [2] in a line: Cytotoxicity against human Huh7.5 cells after 96 hrs by MTT assay. The class given is cell-based, Huh-7. In general terms: Tetrazolium assays rely on reduction of a dye to a coloured formazan, in cell work by metabolically active cells.
A short description of data set [3]: Cytotoxicity against african green monkey Vero cells after 96 hrs by MTT assay. Format: cell-based. The settings on record: chlorocebus sabaeus.
Data set [4] is described as follows: Selectivity index, ratio of CC50 for african green monkey Vero cells to IC50 for Coxsackie B3 virus Nancy. The class given is functional.
Data set [5] is described as follows: Selectivity index, ratio of CC50 for african green monkey Vero cells to IC50 for Coxsackie B3 virus Schmitt. Format: functional.

Turning to `COc1ccc(CNc2ccc(-c3cnco3)c(OC)c2)cc1`, the “Ratio CC50/IC50” value was 29.5 in data set [1], 27.5 in data set [4] and 7 in data set [5]. In addition, the IC50 in the data set on Coxsackievirus B3 was found to be 0.87 µM; with Hepatitis C virus it was 1.4 µM; in the data set with Coxsackievirus B6, 3.42 µM. For the same compound, the 50% cytotoxic concentration (CC50) at 96 h turned out to be 41.3 µM in data set [2] and 23.9 µM in data set [3].

Take `COc1cc(NCc2c[nH]c3ccccc23)ccc1-c1cnco1`: the “Ratio CC50/IC50” value in data set [1] was determined as 34.6; in data set [4], 4.9; in data set [5], 2.1. The half-maximal inhibitory concentration (IC50) in the data set on Coxsackievirus B3 stood at 9.95 µM; with Hepatitis C virus, 1.62 µM; in the data set with Coxsackievirus B6, 23.2 µM. For the same compound, the CC50 at 96 h is 56.1 µM in data set [2] and 48.3 µM in data set [3].

For `CCc1ccc(CNc2ccc(-c3cnco3)c(OC)c2)s1`, the “Ratio CC50/IC50” value stood at 19.8 in data set [1], 6.8 in data set [4] and 3 in data set [5]. The IC50 with Coxsackievirus B3 worked out at 2 µM; in the data set with Hepatitis C virus, 1.98 µM; in the data set on Coxsackievirus B6 it was 4.55 µM. Besides, the values for the CC50 at 96 h in data set [2] and in data set [3] were 39.1 µM and 13.6 µM, respectively.

Take `COc1cc(NCc2cncs2)ccc1-c1cnco1`: the “Ratio CC50/IC50” value in data set [1] was found to be 94.4; in data set [4], 11.8; in data set [5] it was 20.5. Further, the IC50 in the data set with Coxsackievirus B3 stood at 19.6 µM; in the data set with Hepatitis C virus, 0.73 µM; in the data set on Coxsackievirus B6, 11.3 µM. In addition, the CC50 at 96 h in data set [2] stood at 68.9 µM; in data set [3], 232 µM.

`COc1cc(NCc2cccc(C)n2)ccc1-c1cnco1`: the results for the “Ratio CC50/IC50” value in data set [1], in data set [4] and in data set [5] were 26.1, 5.2 and 11.8, respectively. In addition, the half-inhibitory concentration (IC50) in the data set with Coxsackievirus B3 is 14.5 µM; with Hepatitis C virus, 2.4 µM; in the data set on Coxsackievirus B6 it was 6.36 µM. For the same compound, the CC50 at 96 h amounted to 62.7 µM in data set [2] and 75.2 µM in data set [3].

Regarding `COc1cc(NCc2csc3ccccc23)ccc1-c1cnco1`, the results for the “Ratio CC50/IC50” value in data set [1], in data set [4] and in data set [5] were <19.1, 6.8 and 5.2, respectively. The IC50 was 1.87 µM with Coxsackievirus B3, > 1.24 µM in the data set on Hepatitis C virus and 2.43 µM in the data set with Coxsackievirus B6. Further, the CC50 at 96 h in data set [2] stood at 23.6 µM; in data set [3], 12.7 µM.

Consider `COc1ccc(O)c(CNc2ccc(-c3cnco3)c(OC)c2)c1`, for which the “Ratio CC50/IC50” value is given as >10.1 in data set [1], 9.9 in data set [4] and 4.3 in data set [5]. In addition, the 50% inhibitory concentration (IC50) in the data set with Coxsackievirus B3 came out at 9.96 µM; in the data set on Hepatitis C virus, 9.95 µM; with Coxsackievirus B6, 22.7 µM. Further, the 50% cytotoxic concentration (CC50) at 96 h in data set [2] is > 100 µM; in data set [3] it was 98.2 µM.

Take `COc1cc(NCc2cc3ccccc3s2)ccc1-c1cnco1`: the “Ratio CC50/IC50” value in data set [1] amounted to 57.9; in data set [4], 5.3; in data set [5] it was 6.9. The results for the IC50 with Coxsackievirus B3, in the data set with Hepatitis C virus and with Coxsackievirus B6 were 1.39 µM, 0.5 µM and 1.07 µM, respectively. Besides, the half-maximal cytotoxic concentration (CC50) at 96 h is 29 µM in data set [2] and 7.36 µM in data set [3].

As to `COc1cc(NCc2cccs2)ccc1-c1cnco1`, the “Ratio CC50/IC50” value amounted to 183.3 in data set [1], 19.1 in data set [4] and 11.7 in data set [5]. Moreover, the IC50 is 0.94 µM in the data set on Coxsackievirus B3, 0.28 µM in the data set with Hepatitis C virus and 1.54 µM in the data set with Coxsackievirus B6. Besides, the 50% cytotoxic concentration (CC50) at 96 h in data set [2] came out at 51.3 µM; in data set [3], 17.9 µM.

Take `COc1cc(NCc2ccc(OC)c(OC)c2OC)ccc1-c1cnco1`: the results for the “Ratio CC50/IC50” value in data set [1], in data set [4] and in data set [5] were 48.4, 39.5 and 17, respectively. Moreover, the values for the half-inhibitory concentration (IC50) with Coxsackievirus B3, with Hepatitis C virus and with Coxsackievirus B6 were 0.73 µM, 0.66 µM and 1.7 µM, respectively. For the same compound, the results for the CC50 at 96 h in data set [2] and in data set [3] were 32 µM and 28.8 µM, respectively.

As to `COc1cc(NCc2cccnc2Cl)ccc1-c1cnco1`, the “Ratio CC50/IC50” value in data set [1] was 22.5; in data set [4] it was 9.7; in data set [5], 12.2. Moreover, the 50% inhibitory concentration (IC50) with Coxsackievirus B3 was 4.21 µM; in the data set on Hepatitis C virus, 1.8 µM; in the data set on Coxsackievirus B6, 3.33 µM. Further, the CC50 at 96 h in data set [2] is 40.5 µM; in data set [3], 40.6 µM.

Turning to `COc1ccc(CNc2ccc(-c3cnco3)c(OC)c2)cn1`, the “Ratio CC50/IC50” value came to 17.5 in data set [1], 61.5 in data set [4] and 36.7 in data set [5]. Also, the IC50 is 6.03 µM with Coxsackievirus B3, 3.25 µM in the data set with Hepatitis C virus and 10.1 µM in the data set with Coxsackievirus B6. The CC50 at 96 h in data set [2] worked out at 56.8 µM; in data set [3], 371 µM.

As for `COc1cc(NCc2ccncc2)ccc1-c1cnco1`, the results for the “Ratio CC50/IC50” value in data set [1], in data set [4] and in data set [5] were 12.7, 13 and 22.5, respectively. Moreover, the IC50 in the data set with Coxsackievirus B3 worked out at 26.3 µM; with Hepatitis C virus, 5.71 µM; with Coxsackievirus B6, 15.2 µM. The results for the CC50 at 96 h in data set [2] and in data set [3] were 72.2 µM and 342 µM, respectively.

As for `COc1cc(NCc2ccco2)ccc1-c1cnco1`, the “Ratio CC50/IC50” value in data set [1] worked out at 75.4; in data set [4], 7.5; in data set [5], 8.2. For the same compound, the figures for the 50% inhibitory concentration (IC50) with Coxsackievirus B3, in the data set on Hepatitis C virus and with Coxsackievirus B6 were 7.6 µM, 1.06 µM and 6.96 µM, respectively. In addition, the CC50 at 96 h in data set [2] was 80 µM; in data set [3], 57 µM.

Consider `COc1cc(/N=C/c2cccs2)ccc1-c1cnco1`, for which the “Ratio CC50/IC50” value in data set [1] is listed as >17.5; in data set [4], 4; in data set [5], 9. Also, the IC50 with Coxsackievirus B3 came out at 101 µM; in the data set with Hepatitis C virus, 5.72 µM; with Coxsackievirus B6, 45.1 µM. For the same compound, the half-maximal cytotoxic concentration (CC50) at 96 h in data set [2] is > 100 µM; in data set [3], 406 µM.

As to `COc1cc(NCc2ccc(C)s2)ccc1-c1cnco1`, the “Ratio CC50/IC50” value in data set [1] turned out to be 16.8; in data set [4], 7; in data set [5] it was 11.8. Besides, the concentration for half-maximal inhibition (IC50) with Coxsackievirus B3 turned out to be 3.52 µM; in the data set on Hepatitis C virus, 2.05 µM; with Coxsackievirus B6, 2.1 µM. In addition, the CC50 at 96 h is 34.4 µM in data set [2] and 24.7 µM in data set [3].

On to `COc1cc(/N=C/c2ccc([N+](=O)[O-])o2)ccc1-c1cnco1`, for which the “Ratio CC50/IC50” value in data set [1] worked out at 16.5; in data set [5], 2.8. In addition, the IC50 in the data set on Coxsackievirus B3 was > 7.88 µM; in the data set on Hepatitis C virus, 1.24 µM; in the data set with Coxsackievirus B6 it was 4.88 µM. Besides, the values for the CC50 at 96 h in data set [2] and in data set [3] were 20.5 µM and 13.7 µM, respectively.

`COc1ccc2[nH]cc(CNc3ccc(-c4cnco4)c(OC)c3)c2c1`: the “Ratio CC50/IC50” value in data set [1] is >122. Also, the half-maximal inhibitory concentration (IC50) is > 7.07 µM with Coxsackievirus B3, 0.82 µM in the data set on Hepatitis C virus and > 7.07 µM in the data set with Coxsackievirus B6. Further, the CC50 at 96 h in data set [2] is > 100 µM; in data set [3] it was 36.7 µM.

In the case of `NC(=O)c1ncn([C@@H]2O[C@H](CO)[C@@H](O)[C@H]2O)n1` [RIBAVIRIN], the half-maximal inhibitory concentration (IC50) in the data set with Coxsackievirus B3 was found to be 1580 µM; in the data set on Coxsackievirus B6, 910 µM. Besides, the cytotoxic concentration (CC50) at 96 h in data set [3] stood at 8190 µM. For the same compound, the “Ratio CC50/IC50” value in data set [4] was found to be 5.2.
